According to US5780509A, “Compound bearing two, 2,6-diiodophenol-4-YL groups and diagnostic drug for iodine allergy” (Muromachi Kagaku Kogyo Kaisha, Ltd., priority 1994, dated 1998):
Non-standard residues stand in square brackets, D forms with d. Residues, ends and D or L forms follow the SMILES beside them. No end group written: not given here. Tyr(3,5-I2) = N[C@@H](Cc1cc(I)c(O)c(I)c1)C(=O)O

Assays:
anti-iodine antibody [1] = test: ELISA inhibition on anti-iodine antibody (single concentration); format: binding, guinea-pig; set-up: key to ELISA inhibitory activity, judgment: +: a compound had inhibitory activity; -: a compound did not have inhibitory activity
Method: (§1) Guinea-pigs were immunized with iodine by injecting subcutaneously 1 mg of iodine containing potassium iodide solution treated with complete Freund's adjuvant seven times at intervals of 2 weeks, and anti-iodine antiserum was obtained from these animals. Antibody titers of the sera were determined by enzyme linked immunosorbent assay (ELISA) using 96 well microplate coated with iodinated guinea pig serum albumin (I-GSA) ELISA inhibition activities of the following compounds were studied. The compounds used were potassium iodide, tyrosine and its derivatives such as L-tyrosine, monoiodo-L-tyrosine, diiodotyrosine, hexaiodo-L-trityrosine, L-hexatyrosine and 12 iodo-L-hexatyrosine, and iodinated X-ray contrast media such as amidotrizoic acid, iodamide, ioxaglic acid, iohexol, iopamidol and iomeprol.
(§2) ELISA inhibition study was performed as follows. Antibody concentration of anti-iodine antiserum gave the maximum optical density in ELISA till one hundredfold serum dilution. Accordingly, seven steps of twofold serial dilution of anti-iodine antiserum, starting from 50-fold serum dilution, were made with physiological saline as a diluent. To each of the serially diluted sera, were added equal volume of solution containing each of the test compounds described above. After overnight incubation at 4 C, antibody activity was determined by ELISA. Phosphate buffered physiological saline (PBS) was used as a control. ELISA inhibitory activities of the test compounds were determined at the serum dilution which gave about 50% of the maximum optical density (OD415nm =2.6) of ELISA of control at serum dilution of one hundredfold. The inhibitory activity was calculated by the following calculation formula.
Inhibition rate=[1-Optical density under test compouund/Optical density

anti-iodine antibody [2] = test: ELISA inhibition potency (OD50) on anti-iodine antibody; format: binding, guinea-pig; details: serial twofold dilution, equal volume of 50-fold diluted anti-iodine antiserum; read-out: Inhibitory activity (OD50): concentration which decreased optical density of ELISA to a half of the control
Method: as §1, §2
In the next, ELISA inhibition study was undertaken to determine the potency of ELISA inhibitory activity of active compounds. […] The inhibitory activity was expressed as the concentration which decreased optical density of ELISA to a half (OD50) of the control.

[3] = system: guinea-pigs immunized with iodine (iodine-sensitized) and non-sensitized guinea-pigs; test: Active cutaneous anaphylaxis (ACA) reaction, elicitation antigenicity; format: in vivo, guinea-pig (male SPF, Hartley strain); set-up: key to Mean diameter of blue spots, non-sensitized guinea-pig / Mean diameter of blue spots, iodine-sensitized guinea pig (second value) / Mean diameter of blue spots, iodine-sensitized guinea pig (first value): --: Negative response; **: Weak response; details: for Mean diameter of blue spots, iodine-sensitized guinea pig (first value) / Mean diameter of blue spots, iodine-sensitized guinea pig (second value) / Mean diameter of blue spots, non-sensitized guinea-pig: 30 min; for ACA reaction (in words): intradermal injection, guinea-pigs sensitized with iodine
From the text: The elicitation antigenicity of iodinated tyrosine derivatives was studied in the bases of the active cutaneous anaphylaxis (ACA) reaction in guinea-pigs immunized with iodine.
Animals: Male SPF guinea-pigs of Hartley strain, weighing 300~350 g were purchased from Charles River Japan Co., Ltd. These were immunized after having been acclimated for one week.
Sensitization: A solution of iodine potassium iodide (Wako Junyaku, special grade reagent) and complete Freund's adjuvant (Difco) were mixed in equal amounts to form an emulsion. This was administered subcutaneously into the back of guinea-pigs at a dose of 2 mg of iodine per animal 3 times at intervals of 2 weeks. Active cutaneous anaphylaxis (ACA) was elicited 2 weeks after the last sensitization injection.
ACA Induction: 2% Evans blue physiological solution (0.5 ml/animal) was administered intravenously to guinea-pigs, and immediately thereafter 0.1 ml of an elicitation antigen was administered intradermally into the back, and after 30 min. the existence of pigment leakage at the intradermally injected sites was observed.
Elicitation antigen: Iodinated dityrosine, iodinated trityrosine, iodinated dityrosylphenylalanine were administered intracutaneously at 0.1 ml/site. Guinea-pig serum albumin (fraction V: Sigma) was iodinated and used as a positive control. Corresponding noniodinated ones were also administered intradermally as negative controls.
Iodination reaction: To a 50 mM boric acid buffer solution (pH 9.5) of 10 mg/ml of dityrosine, trityrosine, or dityrosylphenylalanine (all produced by Sigma Co., Ltd.) or guinea-pig serum albumin (abbreviated hereafter as GSA), a 0.5M solution of iodine was added at a ratio of 10:1, and these were reacted at 37 C. overnight. The excess iodine in the reaction mixture was reduced by adding sodium thiosulfate (Nakarai Chemical Co., Ltd.). For purification of the iodinated tyrosine derivatives, the reaction mixture was extracted with ethyl acetate and dried with magnesium sulfate, and hexane was added to obtain crystals. For purification of the iodinated GSA, the reaction mixture was purified by passing it through a Sephadex G25 column.

N[C@@H](Cc1cc(I)c(O)c(I)c1)C(=O)O [Diiodo-L-tyrosine]
ELISA inhibition rate (anti-iodine antibody [1]; 10 mM): 100% | ELISA inhibitory activity, judgment (anti-iodine antibody [1]; 10 mM): + | IC50 (anti-iodine antibody [2]): 5000 µM

[I-].[K+] [Potassium iodide]
ELISA inhibition rate (anti-iodine antibody [1]; 10 mM): 0% | ELISA inhibitory activity, judgment (anti-iodine antibody [1]; 10 mM): -

N[C@@H](Cc1cc(I)c(O)c(I)c1)C(=O)N[C@@H](Cc1cc(I)c(O)c(I)c1)C(=O)O (H-[Tyr(3,5-I2)]-[Tyr(3,5-I2)]-OH)
Mean diameter of blue spots, iodine-sensitized guinea pig (first value) ([3]; 1 μg/site intradermal): -- | Mean diameter of blue spots, iodine-sensitized guinea pig (second value) ([3]; 1 μg/site intradermal): -- | Mean diameter of blue spots, non-sensitized guinea-pig ([3]; 1 μg/site intradermal): -- | Mean diameter of blue spots, iodine-sensitized guinea pig (first value) ([3]; 10 μg/site intradermal): 5.0 mm | Mean diameter of blue spots, iodine-sensitized guinea pig (second value) ([3]; 10 μg/site intradermal): -- | Mean diameter of blue spots, non-sensitized guinea-pig ([3]; 10 μg/site intradermal): -- | Mean diameter of blue spots, iodine-sensitized guinea pig (first value) ([3]; 100 μg/site intradermal): 7.0 mm | Mean diameter of blue spots, iodine-sensitized guinea pig (second value) ([3]; 100 μg/site intradermal): 5.0 mm | Mean diameter of blue spots, non-sensitized guinea-pig ([3]; 100 μg/site intradermal): -- | ACA reaction (in words) [3]: ACA reaction was elicited

YYYYYY [L-Hexatyrosine]
ELISA inhibition rate (anti-iodine antibody [1]; 1 mM): 0% | ELISA inhibitory activity, judgment (anti-iodine antibody [1]; 1 mM): -

N[C@@H](Cc1ccc(O)cc1)C(=O)O [L-Tyrosine]
ELISA inhibition rate (anti-iodine antibody [1]; 10 mM): -2.6% | ELISA inhibitory activity, judgment (anti-iodine antibody [1]; 10 mM): -

CC(=O)N(CC(O)CO)c1c(I)c(C(=O)NCC(O)CO)c(I)c(C(=O)NCC(O)CO)c1I (stereo not shown) [Iohexol]
ELISA inhibition rate (anti-iodine antibody [1]; 10 mM): -5.0% | ELISA inhibitory activity, judgment (anti-iodine antibody [1]; 10 mM): +

CN(C(=O)CO)c1c(I)c(C(=O)NCC(O)CO)c(I)c(C(=O)NCC(O)CO)c1I (stereo not shown) [Iomeprol]
ELISA inhibition rate (anti-iodine antibody [1]; 10 mM): -1.8% | ELISA inhibitory activity, judgment (anti-iodine antibody [1]; 10 mM): +

CC(=O)NCc1c(I)c(NC(C)=O)c(I)c(C(=O)O)c1I [Iodamide]
ELISA inhibition rate (anti-iodine antibody [1]; 10 mM): 3.5% | ELISA inhibitory activity, judgment (anti-iodine antibody [1]; 10 mM): +

N[C@@H](Cc1cc(I)c(O)c(I)c1)C(=O)N[C@@H](Cc1cc(I)c(O)c(I)c1)C(=O)N[C@@H](Cc1cc(I)c(O)c(I)c1)C(=O)N[C@@H](Cc1cc(I)c(O)c(I)c1)C(=O)N[C@@H](Cc1cc(I)c(O)c(I)c1)C(=O)N[C@@H](Cc1cc(I)c(O)c(I)c1)C(=O)O [12 iodo-L-hexatyrosine] (H-[Tyr(3,5-I2)][Tyr(3,5-I2)][Tyr(3,5-I2)][Tyr(3,5-I2)][Tyr(3,5-I2)][Tyr(3,5-I2)]-OH)
ELISA inhibition rate (anti-iodine antibody [1]; 1 mM): 94.3% | ELISA inhibitory activity, judgment (anti-iodine antibody [1]; 1 mM): + | IC50 (anti-iodine antibody [2]): 125 µM

CNC(=O)c1c(I)c(C(=O)NCC(=O)Nc2c(I)c(C(=O)O)c(I)c(C(=O)NCCO)c2I)c(I)c(N(C)C(C)=O)c1I [Ioxaglic acid]
ELISA inhibition rate (anti-iodine antibody [1]; 10 mM): -9.4% | ELISA inhibitory activity, judgment (anti-iodine antibody [1]; 10 mM): +

N[C@@H](Cc1ccc(O)cc1)C(=O)N[C@@H](Cc1ccc(O)cc1)C(=O)O [reference compound] (H-Tyr-Tyr-OH)
Mean diameter of blue spots, iodine-sensitized guinea pig (first value) ([3]; 1000 μg/site intradermal): -- | Mean diameter of blue spots, iodine-sensitized guinea pig (second value) ([3]; 1000 μg/site intradermal): -- | Mean diameter of blue spots, non-sensitized guinea-pig ([3]; 1000 μg/site intradermal): --

C[C@H](O)C(=O)Nc1c(I)c(C(=O)NC(CO)CO)c(I)c(C(=O)NC(CO)CO)c1I [Iopamidol]
ELISA inhibition rate (anti-iodine antibody [1]; 10 mM): -6.5% | ELISA inhibitory activity, judgment (anti-iodine antibody [1]; 10 mM): +

N[C@@H](Cc1ccc(O)cc1)C(=O)N[C@@H](Cc1ccc(O)cc1)C(=O)N[C@@H](Cc1ccc(O)cc1)C(=O)O [Trityrosine, trityrosine, reference compound] (H-Tyr-Tyr-Tyr-OH)
Mean diameter of blue spots, iodine-sensitized guinea pig (first value) ([3]; 1000 μg/site intradermal): -- | Mean diameter of blue spots, iodine-sensitized guinea pig (second value) ([3]; 1000 μg/site intradermal): -- | Mean diameter of blue spots, non-sensitized guinea-pig ([3]; 1000 μg/site intradermal): --

N[C@@H](Cc1ccc(O)cc1)C(=O)N[C@@H](Cc1ccc(O)cc1)C(=O)N[C@@H](Cc1ccccc1)C(=O)O [Dityrosylphenylalanine, L-tyrosyl-L-tyrosylphenylalanine, reference compound] (H-Tyr-Tyr-Phe-OH)
Mean diameter of blue spots, iodine-sensitized guinea pig (first value) ([3]; 1000 μg/site intradermal): -- | Mean diameter of blue spots, iodine-sensitized guinea pig (second value) ([3]; 1000 μg/site intradermal): -- | Mean diameter of blue spots, non-sensitized guinea-pig ([3]; 1000 μg/site intradermal): --

CC(=O)Nc1c(I)c(NC(C)=O)c(I)c(C(=O)O)c1I [Amidotrizoic acid]
ELISA inhibition rate (anti-iodine antibody [1]; 10 mM): 0.3% | ELISA inhibitory activity, judgment (anti-iodine antibody [1]; 10 mM): -

N[C@@H](Cc1cc(I)c(O)c(I)c1)C(=O)N[C@@H](Cc1cc(I)c(O)c(I)c1)C(=O)N[C@@H](Cc1ccccc1)C(=O)O [Iodinated dityrosylphenylalanine] (H-[Tyr(3,5-I2)]-[Tyr(3,5-I2)]-Phe-OH)
Mean diameter of blue spots, iodine-sensitized guinea pig (first value) ([3]; 1 μg/site intradermal): -- | Mean diameter of blue spots, iodine-sensitized guinea pig (second value) ([3]; 1 μg/site intradermal): -- | Mean diameter of blue spots, non-sensitized guinea-pig ([3]; 1 μg/site intradermal): -- | Mean diameter of blue spots, iodine-sensitized guinea pig (first value) ([3]; 10 μg/site intradermal): 7.0 mm | Mean diameter of blue spots, iodine-sensitized guinea pig (second value) ([3]; 10 μg/site intradermal): -- | Mean diameter of blue spots, non-sensitized guinea-pig ([3]; 10 μg/site intradermal): -- | Mean diameter of blue spots, iodine-sensitized guinea pig (first value) ([3]; 100 μg/site intradermal): 8.0 mm | Mean diameter of blue spots, iodine-sensitized guinea pig (second value) ([3]; 100 μg/site intradermal): 3.0 mm | Mean diameter of blue spots, non-sensitized guinea-pig ([3]; 100 μg/site intradermal): -- | ACA reaction (in words) [3]: ACA reaction was elicited

N[C@@H](Cc1ccc(O)c(I)c1)C(=O)O [Monoiodo-L-tyrosine]
ELISA inhibition rate (anti-iodine antibody [1]; 10 mM): 5.6% | ELISA inhibitory activity, judgment (anti-iodine antibody [1]; 10 mM): -
